# PubChem BioAssay (NCI)
#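 How tested: cells in 96-well plates exposed to compound for 48 hours at five concentrations. GI50 = concentration required for 50% inhibition of growth. TGI marks complete inhibition of growth.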
# Assays:
# Assay in all cases: NCI tumour cell line growth inhibition, 48 h
# [1] = test system: M14 melanoma
# [2] = test system: NCI-H460 lung
# [3] = test system: TK-10 renal
# [4] = test system: DU-145 prostate
# [5] = test system: A549 NSCLC
# [6] = test system: SW-620 colon
# [7] = test system: NCI-H23 lung
# [8] = test system: RPMI-8226 leukemia
# [9] = test system: MCF7 breast
# [10] = test system: HCT-116 colon
# [11] = test system: HS 578T breast
# [12] = test system: MDA-MB-435
# [13] = test system: SN12C renal
# [14] = test system: SF-295 CNS
# [15] = test system: UACC-62 melanoma
# [16] = test system: NCI/ADR-RES ovarian
# [17] = test system: HT29 colon
# [18] = test system: MALME-3M melanoma
# [19] = test system: OVCAR-5 ovarian
# [20] = test system: K-562 leukemia
# [21] = test system: CCRF-CEM leukemia
# [22] = test system: HCT-15 colon
# [23] = test system: KM12 colon
# [24] = test system: SF-539 CNS
# [25] = test system: HOP-92 NSCLC
# [26] = test system: IGROV1 ovarian
# [27] = test system: CAKI-1 renal
# [28] = test system: PC-3 prostate
# [29] = test system: SNB-19 CNS
# [30] = test system: NCI-H226 lung
# [31] = test system: COLO 205 colon
# [32] = test system: NCI-H522 lung
# [33] = test system: SK-MEL-2 melanoma
# [34] = test system: HCC-2998 colon
# [35] = test system: SK-MEL-5 melanoma
# [36] = test system: UACC-257 melanoma
# [37] = test system: SK-MEL-28 melanoma
# [38] = test system: A498 renal
# [39] = test system: ACHN renal
# [40] = test system: MDA-MB-231 breast
# [41] = test system: MOLT-4 leukemia
# [42] = test system: U251 CNS
# [43] = test system: T-47D breast
# [44] = test system: SNB-75 CNS
# [45] = test system: SF-268 CNS
# [46] = test system: HOP-62 NSCLC
# [47] = test system: SR leukemia
# [48] = test system: BT-549 breast
# [49] = test system: RXF 393 renal
# [50] = test system: OVCAR-3 ovarian
# [51] = test system: OVCAR-8 ovarian
# [52] = test system: UO-31 renal
# [53] = test system: SK-OV-3 ovarian
# [54] = test system: 786-0 renal
# [55] = test system: OVCAR-4 ovarian
# [56] = test system: LOX IMVI melanoma
# [57] = test system: HL-60(TB) leukemia
structure (smiles),measurement,setting,value
COc1ccccc1CCN=C1NC(=O)/C(=C/c2ccc3ncccc3c2)S1,GI50,[1],8.41 µM
same,TGI,[1],> 25 µM
same,GI50,[2],6.05 µM
same,TGI,[2],> 25 µM
same,GI50,[3],4.48 µM
same,TGI,[3],> 21.7 µM
same,GI50,[4],7.97 µM
same,TGI,[4],> 25 µM
same,GI50,[5],5.93 µM
same,TGI,[5],> 25 µM
same,GI50,[6],1.32 µM
same,TGI,[6],> 25 µM
same,GI50,[7],8.56 µM
same,TGI,[7],> 25 µM
same,GI50,[8],4.33 µM
same,TGI,[8],19.6 µM
same,GI50,[9],1.63 µM
same,TGI,[9],> 23.9 µM
same,GI50,[10],1.63 µM
same,TGI,[10],> 12.4 µM
same,GI50,[11],7.39 µM
same,TGI,[11],> 18.1 µM
same,GI50,[12],1.43 µM
same,TGI,[12],> 25 µM
same,GI50,[13],6.93 µM
same,TGI,[13],> 25 µM
same,GI50,[14],5.86 µM
same,TGI,[14],> 21.8 µM
same,GI50,[15],6.1 µM
same,TGI,[15],> 25 µM
same,GI50,[16],6.21 µM
same,TGI,[16],> 25 µM
same,GI50,[17],2.47 µM
same,TGI,[17],15.7 µM
same,GI50,[18],7.44 µM
same,TGI,[18],> 23 µM
same,GI50,[19],7.06 µM
same,TGI,[19],> 23.1 µM
same,GI50,[20],1.37 µM
same,TGI,[20],> 25 µM
same,GI50,[21],5.45 µM
same,TGI,[21],23 µM
same,GI50,[22],1.32 µM
same,TGI,[22],> 25 µM
same,GI50,[23],3.34 µM
same,TGI,[23],> 25 µM
same,GI50,[24],4.48 µM
same,TGI,[24],15.7 µM
same,GI50,[25],6.02 µM
same,TGI,[25],22.1 µM
same,GI50,[26],4.87 µM
same,TGI,[26],19.6 µM
same,GI50,[27],3.52 µM
same,TGI,[27],> 15.6 µM
same,GI50,[28],4.54 µM
same,TGI,[28],> 25 µM
same,GI50,[29],4.93 µM
same,TGI,[29],> 25 µM
same,GI50,[30],7.28 µM
same,TGI,[30],24.7 µM
same,GI50,[31],2.86 µM
same,TGI,[31],> 19.6 µM
same,GI50,[32],2.36 µM
same,TGI,[32],7.54 µM
same,GI50,[33],6.57 µM
same,TGI,[33],13.5 µM
same,GI50,[34],8.7 µM
same,TGI,[34],> 25 µM
same,GI50,[35],5.92 µM
same,TGI,[35],17.6 µM
same,GI50,[36],7.52 µM
same,TGI,[36],> 25 µM
same,GI50,[37],8.22 µM
same,TGI,[37],> 25 µM
same,GI50,[38],3.45 µM
same,TGI,[38],12.3 µM
same,GI50,[39],5.98 µM
same,TGI,[39],24.5 µM
same,GI50,[40],9.39 µM
same,TGI,[40],> 25 µM
same,GI50,[41],6.42 µM
same,TGI,[41],15.7 µM
same,GI50,[42],4.1 µM
same,TGI,[42],24.9 µM
same,GI50,[43],6.76 µM
same,TGI,[43],> 23.1 µM
same,GI50,[44],3.71 µM
same,TGI,[44],> 19.2 µM
same,GI50,[45],7.54 µM
same,TGI,[45],> 25 µM
same,GI50,[46],8.17 µM
same,TGI,[46],> 25 µM
same,GI50,[47],0.743 µM
same,TGI,[47],3.02 µM
same,GI50,[48],6.22 µM
same,TGI,[48],> 20.5 µM
same,GI50,[49],5.5 µM
same,TGI,[49],16.9 µM
same,GI50,[50],4.99 µM
same,TGI,[50],12.2 µM
same,GI50,[51],6.75 µM
same,TGI,[51],> 25 µM
same,GI50,[52],5.25 µM
same,TGI,[52],16.3 µM
same,GI50,[53],5.67 µM
same,TGI,[53],14.4 µM
same,GI50,[54],8.24 µM
same,TGI,[54],> 25 µM
same,GI50,[55],4.27 µM
same,TGI,[55],20.5 µM
same,GI50,[56],3.15 µM
same,TGI,[56],18.2 µM
same,GI50,[57],4.2 µM
same,TGI,[57],14.7 µM
